Data as given in PubChem BioAssay AID2745 (NMMLSC, 2010).
Values joined by “and” are separate entries in the source; they are usually repeats but may differ in a detail not shown here. Equal values may be shown once. Active and inactive are the calls of the source. The rule behind the calls is not given here.

How the values were obtained:
[1] = system: S. cerevisiae LAP4-GFP reporter, flow cytometry fluorescence; assay: LAP4-GFP modulation potency in yeast, dose response, cell-based, MLPCN hits, flow cytometry (AID 2745);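 note: yeast exposed to compound for three hours at 30 degrees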
[2] = as above; details: S. cerevisiae LAP4-GFP reporter, flow cytometry fluorescence; at 33 µM (top of the series)

Compound	EC50 [1]	LAP4-GFP fluorescence (kMESF) [2]
CN(Cc1cnc2nc(N)nc(N)c2n1)c1ccc(C(=O)N[C@@H](CCC(=O)O)C(=O)O)cc1	5.18 µM	10.8 kMESF (inactive)
CCOC(=O)CSC1=NC(=O)/C(=C/c2ccc(Br)cc2)S1	15 µM	–
CCCCCCCCn1sccc1=O	0.912 µM	–
COc1ccc(/C=C/C(=O)C2C(=O)C=C(C)OC2=O)cc1O (stereo unspecified)	11.7 µM	–
CSC1=NS(=O)(=O)c2c(C)nn(C)c2S1	27.6 µM	–
O=C(/C=C/c1ccc(Cl)c([N+](=O)[O-])c1)c1cccnc1	28.6 µM	–
CC(Oc1cccc(Cl)c1)C(=O)Nc1nc(-c2ccccn2)cs1 (stereo unspecified)	25.1 µM	–
COc1cc(/C=C2\C(=O)N(CCC#N)N=C2C)c(Br)cc1OC(C)C	4.16 µM	–
O=C1NC(=O)N(c2ccccc2)C(=O)/C1=C/c1ccc(Sc2ccccc2)o1	11.2 µM	–
CN1CCN(C(=O)c2cc(COc3c(F)cccc3F)on2)CC1c1ccccc1 (stereo unspecified)	6.66 µM	–
Cc1ccsc1/C=C1\C(=O)NC(=S)N(C)C1=O	0.327 µM	–
Cc1cc(O)c(C(=O)/C=C/c2ccc(Cl)cc2)c(=O)o1	6.38 µM	–
CC(C)(C)n1nc(-c2ccc(F)cc2)c2c(N)ncnc21	3.51 µM	–
O=C(/C=C/c1ccccn1)c1cc(Br)ccc1O	4.09 µM	–
O=S(=O)(CCN(CCS(=O)(=O)C(F)(F)F)CC1CCCO1)C(F)(F)F (stereo unspecified)	7.67 µM	–
Cc1cc(C)c(S(=O)(=O)ON2C(=O)c3ccccc3C2=O)cc1C	3.12 µM	–
COc1ccccc1N=Nc1ccc(O)c2ncccc12	4.25 µM	–
COc1cccc(C(=O)Nc2nnc(-c3ccc(Cl)cc3)o2)c1	3.84 µM	–
CCSc1nnc(NC(=O)c2ccccn2)s1	30.3 µM	–
CC(C)Oc1ccc(C(=O)/C=C2/C(=O)Nc3ccccc32)cc1	9.41 µM	–
Cc1ccccc1N=Nc1ccc(O)c2ncccc12	7.96 µM	–
Cc1c(Cc2ccccc2)c(NCCN(C)C)n2c(nc3ccccc32)c1C#N	29.9 µM	–

Compound	EC50 [1]	LAP4-GFP fluorescence (kMESF) [2]
CCOC(=O)c1ccc(N=Cc2nc(-c3ccccc3)oc2OC(C)=O)cc1	25.9 µM	–
N#Cc1nccnc1S(=O)(=O)c1cccs1	14 µM	–
COc1cc(SSc2cc(OC)cc([N+](=O)[O-])c2N)c(N)c([N+](=O)[O-])c1	8.26 µM	–
CC(Oc1ccc(Br)cc1)C(=O)Nc1nc(-c2ccccn2)cs1 (stereo unspecified)	4 µM	–
COc1ccc(C(=O)NC(=S)NNC(=O)c2cnccn2)cc1	1.32 µM	–
O=C(C#Cc1ccccc1)c1ccco1	5.17 µM	–
O=C1C=C(c2ccccc2)C(=O)N1Nc1ccccc1	1.62 µM	–
COc1ccccc1OCCCc1c(C)n[nH]c1C	20.1 µM	–
Cc1cccnc1Nc1nc(-c2ccccn2)cs1	3.7 µM	–
Cc1ccc(/C=N/Nc2ncc(Cl)cc2Cl)s1	31.7 µM	–
CCCCS(=O)(=O)/C=C\C=C/S(=O)(=O)CCCC	2.54 µM	–
Cc1ccc(NC(=O)c2ccc(Cl)c(N3C(=O)C=CC3=O)c2)cc1	1.59 µM	–
CC(C)(C)C(=O)NC(=S)NNC(=O)c1ccc(-c2ccccc2)cc1	7.51 µM	–
COc1ccc(C(=O)NNC(=S)NC(=O)/C=C/c2cccs2)cc1	9.05 µM	–
Cc1ccc(/C=C/C(=O)c2ccccc(=O)c2O)c(C)c1	4.15 µM	–
Clc1cccc(CN2COc3c(cc(Cl)c4cccnc34)C2)c1	8.55 µM	–
Cc1c(C(=O)Nc2nc(-c3ccccn3)cs2)oc2ccccc12	4.01 µM	–
Cc1cccc(N=Nc2ccc(O)c3ncccc23)c1	14 µM	–
O=S1(=O)C=C(Sc2nc3ccccc3s2)c2ccccc21	3.29 µM	–
Cc1cccc(Nc2nc(-c3ccccn3)cs2)n1	3.79 µM	–
O=C(/C=C/c1ccc(F)cc1)NC(=S)NNC(=O)c1cnccn1	1.54 µM	–
CCOc1ccc(N2C(=O)/C(=C\c3cccs3)C(=O)NC2=S)cc1	1.96 µM	–

Compound	EC50 [1]	LAP4-GFP fluorescence (kMESF) [2]
CCOC(=O)COc1ccc2ccccc2c1/C=C/[N+](=O)[O-]	4.41 µM	–
COc1ccc(/C=C/C(=O)NC(=S)NNC(=O)c2cnccn2)cc1	1.31 µM	–
CC(C)(C)c1ccc(NC(=O)COC(=O)c2ccc([N+](=O)[O-])s2)cc1	3.72 µM	–
O=C(Oc1c(Cl)cc(Cl)c2cccnc12)c1cccc([N+](=O)[O-])c1	2.02 µM	–
COc1ccc(N=Nc2ccc(O)c3ncccc23)cc1	6.43 µM	–
O=C1C=CC(=O)N1c1cccc(-c2ccccc2)c1	0.385 µM	–
CCCCCCCCC/C(=N\O)c1ccccn1	6.13 µM	–
Cc1ccc(/C=C2\C(=O)NC(=S)N(c3ccc(F)cc3)C2=O)s1	1.15 µM	–
O=[N+]([O-])c1cc(F)c2cccnc2c1O	1.19 µM	–
C/C(=N\NC(=O)c1cc2ccccc2cc1O)c1ccccn1	3.98 µM	–
CC(C)(C)n1nc(-c2ccc(Cl)cc2)c2c(N)ncnc21	4.82 µM	–
CCc1ccc2c(c1)/C(=C/C(=O)c1cccs1)C(=O)N2	4.07 µM	–
O=C1NC(=O)N(Cc2ccco2)C(=O)/C1=C/c1ccc(-c2cccc([N+](=O)[O-])c2)o1	6.36 µM	–
COc1cccc(/C=N/Nc2ncc(C(F)(F)F)cc2Cl)c1O	6.3 µM	–
O=c1/c(=C/c2cccc3ccccc23)sc2ncnn12	9.22 µM	–
N/C(Cc1ccc(Cl)cc1)=N\OC(=O)c1cccc2ccccc12	1.88 µM	–
Cc1cccc(C(=O)NC(=S)NNC(=O)Cc2ccccc2)c1	10.9 µM	–
COc1ccc(N2C(=O)/C(=C/c3cccs3)C(=O)NC2=S)cc1	1.32 µM	–
O=C(Nc1ccc(Cl)cc1)ON=C1CCCC1	3.95 µM	–
CNc1nc(N)c([N+](=O)[O-])c(Nc2cccc(F)c2)n1	5.5 µM	–
O=[N+]([O-])c1ccc(O)c2ncccc12	0.607 µM and 0.752 µM	–
CC1(C)C[C@H]2C=C(C=O)[C@]3(C=O)C[C@]3(C)[C@H]2C1	0.865 µM	–

Compound	EC50 [1]	LAP4-GFP fluorescence (kMESF) [2]
O=C1C=CC(=O)N1c1ccc(O)cc1	4.09 µM	–
CC1=NOC(=O)/C1=C\c1ccc(-c2cc(Cl)ccc2Cl)o1	26.8 µM	–
CCCOc1ccc(C(=O)NNC(=S)NC(=O)c2ccco2)cc1	13.3 µM	–
c1ccc(-c2cccc(-c3ccccn3)n2)nc1	3.9 µM	–
O=C1Oc2ccccc2C(=O)/C1=C/c1ccccc1O	3.75 µM	–
O=C(c1ccc(C(=O)N2CCCc3ccccc32)s1)N1CCCc2ccccc21	7.77 µM	–
CCc1sc(C(=O)Nc2nc(-c3ccccn3)cs2)cc1C	3.94 µM	–
O=C1C=CC(=O)N1N(c1ccccc1)c1ccccc1	2.7 µM	–
Clc1ccc(N=c2ssnc2Cl)cc1	19.3 µM	–
CCCCC(=O)NNC(=S)NC(=O)c1ccc(C)cc1	11.3 µM	–
Cc1ccc2nc(Cl)c3nnnn3c2c1	3.84 µM	–
CC1=CC(=O)C(C(C)C)=C/C1=N/OS(=O)(=O)c1ccccc1	9.59 µM	–
CC1=NNC(=O)/C1=C\c1cn(-c2ccccc2)nc1-c1cccs1	1.32 µM	–
Cc1cccc2c1NC(=O)/C2=C\C(=O)c1cccs1	5.59 µM	–
CCOC(=O)c1cc(-c2ccc(/C=C3/C(=O)NC(=O)C(C#N)=C3C)o2)ccc1Cl	1.36 µM	–
Cc1ccc(C(c2cc(Cl)c3cccnc3c2O)N2CCN(C)CC2)cc1 (stereo unspecified)	2.21 µM	–
CNC(CC(=O)c1ccc([N+](=O)[O-])cc1)C(Cl)(Cl)Cl (stereo unspecified)	1.34 µM	–
O=C(CCc1ccccc1)NNC(=S)NC(=O)c1ccccc1	32.2 µM	–
CC1=C/C(=N\OS(=O)(=O)c2ccccc2)C(C(C)C)=CC1=O	5.16 µM	–
C/C(=N/NC(=O)c1ccc(C(C)(C)C)cc1)c1ccccn1	32.7 µM	–
O=C(Oc1ccnc2cc(Cl)ccc12)N1CCCCCC1	12.1 µM	–
O=C(c1ccccc1)c1ccccc1N1C(=O)C=CC1=O	2 µM	–

Compound	EC50 [1]	LAP4-GFP fluorescence (kMESF) [2]
CCCOc1ccc(C(=O)NNC(=S)NC(=O)CC)cc1	11.5 µM	–
Cc1ccc(C(=O)NNC(=S)NC(=O)COc2ccccc2)cc1	8.27 µM	–
Cc1[nH]n(-c2ccccc2)c(=O)c1C(c1ccccc1[N+](=O)[O-])C(C#N)C#N (stereo unspecified)	7.67 µM	–
O=c1oc2cc(Oc3c([N+](=O)[O-])cc(C(F)(F)F)cc3[N+](=O)[O-])ccc2c2c1CCCC2	3.04 µM	–
COc1cccc(N=Nc2ccc(O)c3ncccc23)c1	3.36 µM	–
COc1cccc2sc(Nc3nc(-c4ccccn4)cs3)nc12	1.36 µM	–
Cc1cccc(C)c1NC(=O)C(Cl)C(=O)c1ccccc1 (stereo unspecified)	1.45 µM	–
O=c1[nH]c(-c2ccccn2)nc(C(F)(F)F)c1Br	2.55 µM	–
O=[N+]([O-])c1cc(S(=O)(=O)C(F)(F)F)ccc1Sc1nc2ccccc2s1	8.42 µM	–
Cc1ccc(/C=C2/SC(=S)N(C3CCCCC3)C2=O)o1	13.3 µM	–
Cc1ccc(S(=O)(=O)c2ccc([N+](=O)[O-])cn2)cc1	14.9 µM	–
COc1cccc(/C=N/Nc2ccc([N+](=O)[O-])cn2)c1O	5.73 µM	–
CC(C)(C)c1nnc(N/N=C/c2cc(Br)ccc2O)n(N)c1=O	12.2 µM	–
CCc1ccc(OCC(=O)NNC(=S)NC(=O)C2CC2)c(Br)c1	5.45 µM	–
Cc1ccc(N/N=C(\C#N)C(N)=S)c(C)c1	11.7 µM	–
Cc1ccsc1/C=N/Nc1ncc(Cl)cc1Cl	6.19 µM	–
CC1=NNC(=O)/C1=C\c1cn(-c2ccccc2)nc1-c1ccccc1	7.23 µM	–
O=[N+]([O-])c1cc(Cl)c2cccnc2c1O	0.859 µM	–
COC(=O)/C(=C/c1c[nH]c2ccccc12)[N+](=O)[O-]	20.7 µM	–
N/C(Cc1ccc(Cl)c(Cl)c1)=N\OC(=O)c1cccs1	5.04 µM	–
Cc1ccc(S(=O)(=O)ON2C(=O)c3ccccc3C2=O)c(C)c1	3.89 µM	–
Cc1cc(C(=O)Nc2nc(-c3ccccn3)cs2)ccc1[N+](=O)[O-]	6.15 µM	–
